Read-outs that look alike come from different tables or passages of the source. Peptide text beside a SMILES is read from it.
What was measured:
[1] = target: T1, ERK2 R133K (Mus musculus, UniProt P63085, R133K); experiment: Competitive peptide kinase assay (D-peptide inhibition), ERK2 R133K; format: biochemical; details: 10 nM ERK2, 10 μM ATP
T1 construct: His6; made in house; host or cells: E. coli BL21(DE3), co-expressed with GST-MEK1ΔN3
Description: (§1) We determined relative binding affinities for D-peptides from their potency as competitive inhibitors of WT or mutant ERK2 activity on a D-site-dependent reporter substrate peptide (Table S1, Fig. 3A, S3).
(§2) Competitive peptide kinase assays were performed with a D-site dependent MAPK reporter substrate peptide (AssayQuant Technologies Inc, #AQT0376) as we reported previously ([15]). Briefly, 5 μM of reporter peptide was mixed with various concentrations of D-peptides in reaction buffer (54 mM HEPES [pH 7.4], 1.2 mM DTT, 0.01% Brij-35, 1% glycerol, 0.2 mg/ml BSA, and 10 mM MgCl2). […] Phosphorylation of the reporter peptide was measured by fluorescence (λex 360 nm, λem 485 nm) in 90 s intervals over 21 min in a Spectra M5 plate reader. Rates were calculated from the linear portion of the reaction progress curve, and data were normalized to maximum (samples lacking competitor peptide) and minimum (control reactions lacking kinase) values. Normalized rates were plotted against D-peptide concentration and fitted into a sigmoidal dose-response curve to determine the IC50 values using GraphPad Prism (Version 9.3.0).

[2] = target: T2, ERK2 WT (Mus musculus, UniProt P63085); experiment: Competitive peptide kinase assay (D-peptide inhibition), ERK2 WT; format: biochemical; details: 10 nM ERK2, 10 μM ATP
T2 construct: His6; made in house; host or cells: E. coli BL21(DE3), co-expressed with GST-MEK1ΔN3
Description: as §1, §2

[3] = target: T3, ERK2 D319N (Mus musculus, UniProt P63085, D319N); experiment: Competitive peptide kinase assay (D-peptide inhibition), ERK2 D319N; format: biochemical; details: Table S1, 5 μM reporter peptide, 10 nM ERK2, 10 μM ATP, three independent experiments
T3 construct: His6; made in house; host or cells: E. coli BL21(DE3), co-expressed with GST-MEK1ΔN3
Description: as §1, §2

[4] = target: T4, ERK2 E322K (Mus musculus, UniProt P63085, E320K); experiment: Competitive peptide kinase assay (D-peptide inhibition), ERK2 E322K; format: biochemical; details: 10 nM ERK2, 10 μM ATP
T4 construct: His6; made in house; host or cells: E. coli BL21(DE3), co-expressed with GST-MEK1ΔN3
Description: as §1, §2

[5] = tested on: WT ERK2; details: selective conditions (-His); hits Z > 3; average of three screens; cited from earlier work
Description: Supplement mmc2.xlsx, sheet "WT Hits" | column: Z-score

[6] = tested on: WT ERK2; experiment: Y2H D-site library screen, WT ERK2; format: cell-based, rat; set-up: key: ES = slope of ln(Ft/F0) vs number of yeast population doublings; details: mutant ES is the combined average ES from the D319N and E320K screens
Description: To examine how cancer-associated CD site mutations affect the scope of ERK2 docking interactions, we adopted a Y2H strategy that we previously applied to define the D-site interactome of WT ERK2 ([15]). This system reports on interactions between ERK2 and a fragment of its substrate ELK1 that harbors a docking site essential for binding (Fig. 1C). The system thus evaluates the binding of potential sequences by substituting them for the native ELK1 docking site. We transformed Y2H strains with a bait plasmid expressing the Gal4 DNA-binding domain (DBD) fused to WT or CD mutant forms of rat ERK2 (R133K, D319N or E320K, equivalent respectively to human R135K, D321N and E322K), along with a prey plasmid expressing Gal4 activation domain (AD) fused to the ELK1 fragment harboring various docking site sequences. We then assayed these strains for growth on solid media under non-selective (+His) and selective conditions (−His) to detect interactions (Fig. 1D).
We previously used the Y2H system to screen WT ERK2 against a pooled library of 11,756 ELK1 variants incorporating potential docking sites from the human proteome ([15]). To identify interacting sequences either gained or lost upon ERK2 CD site mutation, we screened the same library against ERK2^D319N and ERK2^E320K. Yeast expressing ERK2 mutant bait plasmids were transformed with the ELK1 library pool and subjected to competitive growth under selective (−His) and non-selective conditions (+His) in parallel. Cultures were sampled periodically over ∼7 population doublings. The DNA sequence encoding the variable docking site region was PCR amplified and analyzed by next-generation sequencing (Fig. 2A, Dataset S1). The change in sequence abundance over time was fitted to an exponential function to assign an enrichment score (ES) to each docking site, where a higher ES indicates a greater increase in sequence abundance as the population grows. A significant enrichment of docking site sequences was observed only under selective conditions (Figs. 2B, S1). For each mutant, we observed generally good reproducibility across three independently conducted screens albeit with some sequences enriched in only a single replicate (Fig. S2, A and B). Average ES scores for the E320K and D319N mutant screens were better correlated with each other (R = 0.83) than were average ES scores for either mutant compared to WT ERK2 (R = 0.67 for WT versus D319N, R = 0.63 for WT versus E320K) (Fig. S2C).
To compare sequences selected by CD mutants with those selected by WT ERK2, we defined those sequences with an ES equal to or higher than three standard deviations from the mean (Z > 3) as hits. Using this cutoff, we obtained 121, 127, and 153 hits sequences from the WT, D319N, and E320K screens, respectively (Fig. 2C, Dataset S2).
Yeast harboring pGBT9-ERK2^E320K or pGBT9-ERK2^D319N were transformed with the pGADGH-ELK1 D-site library plasmid pool. Transformants (10–40 colonies per library component) were suspended in SD-Leu-Trp media, diluted to an OD600 of 0.1, and cultured in a shaking incubator at 30 °C to an OD600 of 1.0. The resulting culture was used to initiate a competitive selection screen. Cell growth, sample collection and data analysis were performed exactly as described previously for WT ERK2 ([15]). The frequency (F) of each D-site sequence at a given time point (t) was calculated by dividing the number of reads by the total read count for all sequences. For each sequence, a plot of ln(Ft/F0) as a function of the number of yeast population doublings was fit to a line, and the enrichment score (ES) for that sequence was defined as the slope of this line. Illumina sequencing reads, calculated ES, and Z scores for each screen are provided in Dataset S1.

[7] = Table S1, 5 μM reporter peptide, three independent experiments
[8] = Table 2, 5 μM D-site dependent reporter peptide, pH 7.4, fluorescence, mean of three independent replicates
[9] = Table 2, 5 μM reporter peptide, mean of three independent replicates, read-out: IC50, ERK2 E322 K

T4 sequence (P63085 whole entry E320K): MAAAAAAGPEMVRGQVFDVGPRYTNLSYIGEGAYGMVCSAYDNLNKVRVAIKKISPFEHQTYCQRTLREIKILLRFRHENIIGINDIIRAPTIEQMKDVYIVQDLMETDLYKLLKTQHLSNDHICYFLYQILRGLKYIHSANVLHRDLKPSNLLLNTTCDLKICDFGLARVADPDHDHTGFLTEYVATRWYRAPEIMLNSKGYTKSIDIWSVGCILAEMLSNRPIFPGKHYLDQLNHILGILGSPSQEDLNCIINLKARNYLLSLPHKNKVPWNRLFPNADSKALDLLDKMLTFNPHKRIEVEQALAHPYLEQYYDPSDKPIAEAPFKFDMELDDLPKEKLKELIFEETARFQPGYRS
T3 sequence (P63085 whole entry D319N): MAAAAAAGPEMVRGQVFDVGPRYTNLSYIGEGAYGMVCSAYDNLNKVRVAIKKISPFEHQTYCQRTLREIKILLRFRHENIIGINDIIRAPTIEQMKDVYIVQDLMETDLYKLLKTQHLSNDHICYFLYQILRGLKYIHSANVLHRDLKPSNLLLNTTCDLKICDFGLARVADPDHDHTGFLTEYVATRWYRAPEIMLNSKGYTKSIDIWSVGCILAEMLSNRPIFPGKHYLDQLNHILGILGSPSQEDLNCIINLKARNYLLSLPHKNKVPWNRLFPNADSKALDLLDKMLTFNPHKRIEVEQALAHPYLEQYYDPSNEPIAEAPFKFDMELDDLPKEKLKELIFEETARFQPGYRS
T2 sequence (P63085 whole entry): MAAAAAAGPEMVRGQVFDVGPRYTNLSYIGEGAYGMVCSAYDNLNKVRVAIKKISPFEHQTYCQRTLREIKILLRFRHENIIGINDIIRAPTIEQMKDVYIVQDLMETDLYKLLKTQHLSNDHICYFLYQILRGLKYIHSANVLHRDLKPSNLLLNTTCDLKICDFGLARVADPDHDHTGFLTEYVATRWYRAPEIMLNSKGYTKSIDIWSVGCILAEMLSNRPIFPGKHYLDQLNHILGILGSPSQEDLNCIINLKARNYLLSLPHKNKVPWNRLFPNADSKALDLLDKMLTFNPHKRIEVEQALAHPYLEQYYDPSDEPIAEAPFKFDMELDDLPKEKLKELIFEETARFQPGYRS
T1 sequence (P63085 whole entry R133K): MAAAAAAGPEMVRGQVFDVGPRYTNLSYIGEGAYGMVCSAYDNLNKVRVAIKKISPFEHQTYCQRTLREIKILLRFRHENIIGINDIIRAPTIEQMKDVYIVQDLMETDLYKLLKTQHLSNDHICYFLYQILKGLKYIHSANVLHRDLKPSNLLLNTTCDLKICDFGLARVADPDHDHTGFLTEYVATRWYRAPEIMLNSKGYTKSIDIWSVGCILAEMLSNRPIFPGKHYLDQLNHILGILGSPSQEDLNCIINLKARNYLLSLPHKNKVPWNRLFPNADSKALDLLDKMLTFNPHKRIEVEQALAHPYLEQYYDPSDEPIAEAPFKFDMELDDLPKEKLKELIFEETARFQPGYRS

| Compound | IC50 [1, 7] [µM] | IC50 [2, 7] [µM] | IC50 [3] [µM] | IC50 [4, 7] [µM] | IC50 [4, 9] [µM] | also measured |
| --- | --- | --- | --- | --- | --- | --- |
| CC(C)C[C@H](NC(=O)[C@H](C)NC(=O)[C@@H](N)Cc1ccc(O)cc1)C(=O)N[C@@H](CCC(N)=O)C(=O)N[C@@H](CCC(N)=O)C(=O)N[C@@H](CCCNC(=N)N)C(=O)N[C@@H](CCCNC(=N)N)C(=O)N[C@@H](CC(C)C)C(=O)N[C@@H](CCC(N)=O)C(=O)N[C@@H](Cc1c[nH]cn1)C(=O)N[C@@H](CCCNC(=N)N)C(=O)N[C@@H](CC(C)C)C(=O)N[C@@H](CCCNC(=N)N)C(=O)N[C@@H](CC(C)C)C(=O)N[C@@H](CCCNC(=N)N)C(=O)N[C@@H](C)C(=O)O [AEBP1] (H-YALQQRRLQHRLRLRA-OH) | 110 | 16 | 120 | 160 | – | – |
| CSCC[C@H](NC(=O)[C@H](CC(C)C)NC(=O)[C@H](C)NC(=O)[C@@H](N)Cc1ccc(O)cc1)C(=O)N[C@@H](CCC(=O)O)C(=O)N[C@@H](CCCNC(=N)N)C(=O)N[C@@H](CCCNC(=N)N)C(=O)N[C@@H](CCCNC(=N)N)C(=O)N[C@@H](CC(C)C)C(=O)N[C@@H](CC(N)=O)C(=O)N[C@@H](CCC(N)=O)C(=O)N[C@@H](CC(C)C)C(=O)N[C@@H](CC(C)C)C(=O)N[C@@H](CC(C)C)C(=O)N1CCC[C@H]1C(=O)N[C@@H](CC(C)C)C(=O)O [ANAPC5] (H-YALMERRRLNQLLLPL-OH) | 340 | 32 | – | – | – | – |
| CC[C@H](C)[C@H](NC(=O)[C@@H](NC(=O)[C@H](CCC(=O)O)NC(=O)[C@H](CCSC)NC(=O)[C@H](CCC(N)=O)NC(=O)[C@H](CCCNC(=N)N)NC(=O)[C@H](CCCNC(=N)N)NC(=O)[C@H](CC(N)=O)NC(=O)[C@H](CCCNC(=N)N)NC(=O)[C@H](CC(C)C)NC(=O)[C@H](C)NC(=O)[C@@H](N)Cc1ccc(O)cc1)C(C)C)C(=O)N[C@@H](CO)C(=O)N[C@@H](CC(C)C)C(=O)N[C@@H](CCCNC(=N)N)C(=O)N[C@@H](CC(C)C)C(=O)O [DISC1] (H-YALRNRRQMEVISLRL-OH) | 74 | 23 | 79 | 110 | – | – |
| CC(C)C[C@H](NC(=O)[C@H](CC(=O)O)NC(=O)[C@H](CCCNC(=N)N)NC(=O)[C@@H]1CCCN1C(=O)[C@H](CCCCN)NC(=O)[C@H](CCCNC(=N)N)NC(=O)CNC(=O)[C@H](CCCCN)NC(=O)[C@H](C)NC(=O)[C@@H](N)Cc1ccc(O)cc1)C(=O)N[C@@H](CCC(=O)O)C(=O)N[C@@H](CC(C)C)C(=O)N1CCC[C@H]1C(=O)N[C@@H](CC(C)C)C(=O)N[C@@H](CO)C(=O)N1CCC[C@H]1C(=O)O [ELK1] (H-YAKGRKPRDLELPLSP-OH) | 58 | 35 | 32 | 43 | – | – |
| CC[C@H](C)[C@H](NC(=O)[C@H](C)NC(=O)[C@@H](N)Cc1ccc(O)cc1)C(=O)N[C@@H](CCCNC(=N)N)C(=O)N[C@@H](C)C(=O)N[C@@H](C)C(=O)N[C@@H](CCCNC(=N)N)C(=O)NCC(=O)N[C@@H](CC(C)C)C(=O)N1CCC[C@H]1C(=O)N[C@@H](CCCNC(=N)N)C(=O)N[C@@H](CC(C)C)C(=O)N[C@@H](C)C(=O)N[C@H](C(=O)N[C@@H](CO)C(=O)N[C@@H](CC(=O)O)C(=O)O)C(C)C [ISG20 peptide R4A] | – | – | – | – | 300 | – |
| CC[C@H](C)[C@H](NC(=O)[C@H](C)NC(=O)[C@@H](N)Cc1ccc(O)cc1)C(=O)N[C@@H](CCCNC(=N)N)C(=O)N[C@@H](C)C(=O)N[C@@H](CCCNC(=N)N)C(=O)N[C@@H](C)C(=O)NCC(=O)N[C@@H](CC(C)C)C(=O)N1CCC[C@H]1C(=O)N[C@@H](CCCNC(=N)N)C(=O)N[C@@H](CC(C)C)C(=O)N[C@@H](C)C(=O)N[C@H](C(=O)N[C@@H](CO)C(=O)N[C@@H](CC(=O)O)C(=O)O)C(C)C [ISG20 peptide R5A] | – | – | – | – | 400 | – |
| RRRGRPPKRIHISQ [BAZ1A, D-site 14-mer in ELK1 Y2H prey] | – | – | – | – | – | Z-score (ES) of hit sequences, WT ERK2 Y2H screen [5]: 4.55; WT ES - mutant ES [6]: 0.150 |
| RSKLRKPKPVPLRK [TACC1, D-site 14-mer in ELK1 Y2H prey] | – | – | – | – | – | Z-score (ES) of hit sequences, WT ERK2 Y2H screen [5]: 5.18; WT ES - mutant ES [6]: 0.162 |
| TRHERNYTKVNFCK [ZNF675, D-site 14-mer in ELK1 Y2H prey] | – | – | – | – | – | Z-score (ES) of hit sequences, WT ERK2 Y2H screen [5]: 7.60; WT ES - mutant ES [6]: 0.359 |

Second part, led by results:

| IC50 [1, 7] [µM] | IC50 [2, 7] [µM] | IC50 [3] [µM] | IC50 [4, 7] [µM] | IC50 [4, 9] [µM] | Compound | also measured |
| --- | --- | --- | --- | --- | --- | --- |
| – | – | 300 | – | – | CC(C)C[C@H](NC(=O)[C@H](C)NC(=O)[C@@H](N)Cc1ccc(O)cc1)C(=O)NCC(=O)N[C@@H](CO)C(=O)N[C@@H](CCCNC(=N)N)C(=O)N[C@@H](CCCNC(=N)N)C(=O)NCC(=O)N[C@@H](CCCNC(=N)N)C(=O)N[C@@H](CO)C(=O)N[C@@H](CO)C(=O)N[C@@H](CC(C)C)C(=O)N[C@@H](CO)C(=O)N[C@@H](CC(C)C)C(=O)N[C@@H](C)C(=O)N[C@@H](CCCCN)C(=O)O [ARHGEF2] | – |
| 5.7 | 5.1 | 9.8 | 14 | – | CC(C)C[C@H](NC(=O)[C@H](CC(C)C)NC(=O)[C@H](CC(C)C)NC(=O)[C@H](CCCNC(=N)N)NC(=O)[C@H](CCCCN)NC(=O)[C@@H]1CCCN1C(=O)[C@H](CCCCN)NC(=O)[C@@H]1CCCN1C(=O)CNC(=O)[C@H](CCCNC(=N)N)NC(=O)[C@H](CCCCN)NC(=O)[C@H](CCCNC(=N)N)NC(=O)[C@H](C)NC(=O)[C@@H](N)Cc1ccc(O)cc1)C(=O)N[C@@H](CCC(N)=O)C(=O)N[C@@H](CCCNC(=N)N)C(=O)O [CBX7] (H-YARKRGPKPKRLLLQR-OH) | – |
| – | – | – | – | 170 | CC[C@H](C)[C@H](NC(=O)[C@H](C)NC(=O)[C@@H](N)Cc1ccc(O)cc1)C(=O)NCC(=O)N[C@@H](CCCNC(=N)N)C(=O)N[C@@H](C)C(=O)N[C@@H](CCCNC(=N)N)C(=O)N[C@@H](CCCNC(=N)N)C(=O)NCC(=O)N[C@@H](CC(C)C)C(=O)N1CCC[C@H]1C(=O)N[C@@H](CCCNC(=N)N)C(=O)N[C@@H](CC(C)C)C(=O)N[C@@H](C)C(=O)N[C@H](C(=O)N[C@@H](CO)C(=O)N[C@@H](CC(=O)O)C(=O)O)C(C)C [ISG20 peptide G2+] (H-YAIGRARRGLPRLAVSD-OH) | IC50 [2, 8]: 120 µM |
| – | – | – | – | 210 | CC[C@H](C)[C@H](NC(=O)[C@H](C)NC(=O)[C@@H](N)Cc1ccc(O)cc1)C(=O)N[C@@H](CCCNC(=N)N)C(=O)N[C@@H](C)C(=O)N[C@@H](CCCNC(=N)N)C(=O)N[C@@H](CCCNC(=N)N)C(=O)NCC(=O)NCC(=O)N[C@@H](CC(C)C)C(=O)N1CCC[C@H]1C(=O)N[C@@H](CCCNC(=N)N)C(=O)N[C@@H](CC(C)C)C(=O)N[C@@H](C)C(=O)N[C@H](C(=O)N[C@@H](CO)C(=O)N[C@@H](CC(=O)O)C(=O)O)C(C)C [ISG20 peptide G7+] (H-YAIRARRGGLPRLAVSD-OH) | IC50 ([1]; Table 2, 5 μM reporter peptide, mean of three independent replicates, read-out: IC50, ERK2 R133 K): 170 µM; IC50 [2, 8]: 75 µM |

Source: publication PMC11982978, “Cancer hotspot mutations rewire ERK2 specificity by selective exclusion of docking interactions” (The Journal of Biological Chemistry, 2025)
